Experimental data published in patent publication US4182770A, “Alcohol deterrent” (priority 1976, dated 1980).
“Also recorded” adds a separate entry of the source. Like-named read-outs stand apart in the source and are kept apart here. Values belong to the molecule of their own block, whether it stands above or below them.

How the values were obtained:
[1] = test system: acetaldehyde content of the blood; test: Acetaldehyde content of the blood after the consumption of alcohol; type: in vivo
From the text: (§1) In contrast, important enzyme systems are inhibited by use of disulfiram.

[2] = Side effects / tolerability on administration; type: in vivo, humans
From the text: It can even appear upon merely smelling the atmosphere of a barroom. […] However, in comparison with the known severe results of a marked abuse of alcohol, these side effects are negligible.

[3] = Half-life time of the active material; conditions: in vivo
[4] = Critical examinations for possible damages (clinical laboratory and blood pressure determinations); type: in vivo, humans; conditions: bilirubin in the blood
From the text: In addition to the treatment with I, critical examinations for possible damages were undertaken. […] However, this observation probably only applies indirectly and exclusively to alcohol-toxic liver damages because toxic alcohol which was no longer inhibited, no longer acted upon the liver.

[5] = test system: aversion to alcohol in humans; test: Alcohol withdrawal/aversion treatment in patients (case histories); type: in vivo
Description: In a particularly preferred mode of administration, tablets or dragees containing about 800 mg. of I are used. As an example of its use, after at least 12 hours of alcohol abstention, a half tablet (400 mg.) can be given in the morning before eating, and another half on the next day.
22 Men and 5 women were treated with the new agent I. The youngest patient was 22 and the oldest 68. The average age was 44 years. After the first administration (400 mg., twice), as described above, the dosage consisted of a single oral administration of 800 mg. per week. The highest total dosage amounted to 67 g. of I. With this, the patient could be protected against the influence of alcohol for 84 weeks.
In assessment of success, 5 cases are to be discounted from the total of 27 I treatments. […] Thus, 22 cases remain which can be considered as I treatments. In 12 of these cases, the withdrawal treatment was successful; in three cases questionable; and 7 cases without success. […] After taking 11 g. of I and more (corresponding to an active level period of over 14 weeks), 8 successful cases were counted and two had questionable success. Below 6 g. of I (corresponding to an active level of not more than 8 weeks), there were seven failures; one questionable case and only 2 successful withdrawals.

important enzyme systems [6] = test: Inhibition of important enzyme systems; type: biochemical; conditions: compound I
From the text: as §1

trypanosomes = conditions: known from P 16 20 043 / GB 1,133,408; cited from earlier work
[7] = disulfiram, cited from earlier work
important enzyme systems [8] = conditions: disulfiram; cited from earlier work
[9] = after administration of I, humans
[10] = below 6 g. of I (active level of not more than 8 weeks)

half-life [3]: > 2400 min
inhibition of important enzyme systems (important enzyme systems [6]): No such inhibition occurs
Compound: Cc1nc([N+](=O)[O-])cn1-c1ccc([N+](=O)[O-])cc1 [compound I, 1-(4-nitrophenyl)-2-methyl-4-nitroimidazole]
acetaldehyde content of the blood [1]: increase
compatibility ([2]; Example 1: after first 400 mg.): Good compatibility
severity of side effects [2, 9]: generally minor
side effects which occasionally appear [2, 9]: tachycardia, flush-like skin reddenings, sickly feelings, headache and hangover
liver function tests ([4]; γ-GT and γ-globulins, probably indirect, alcohol-toxic liver damages only): clear normalizations
harmful side effects in laboratory examinations ([4]; lymphocytes, GT, GOT, GPT, total protein, β-globulins, γ-globulins, cholesterol, RR systolic): no indications of harmful side effects
successful cases ([5]; 11 g. of I and more (active level period of over 14 weeks)): 8 cases
correlation of success with period of the withdrawal treatment ([5]; 22 evaluable cases): clearly correlated
outcome of treatment ([5]; Example 1: champagne cellerman, total dosage 67 g., first treatment from May 1972): the patient behaved normally and worked regularly
outcome of renewed treatment ([5]; Example 1: treatment begun again after relapse in May 1974, up to January 1975): same good success
effect of alcohol after discontinuation of treatment ([5]; Example 2: one month after discontinuation (treated November 1973 to February 1974)): throbbing headache caused by alcohol
outcome of treatment ([5]; Example 2: storekeeper, total dosage 57 g., since April 1974, relatively regular taking of tablets): normal, regular work
outcome of treatment ([5]; Example 3: total dosage 37 g., after renewed treatment November 1973 to January 1975): no alcohol
outcome of treatment ([5]; Example 4: immigrant worker, total dosage 25 g., statement of spouse): successful breaking of the habit
alcohol consumption since the end of the treatment ([5]; Example 4: total dosage 25 g., according to statements of the wife): only had an occassional 1-2 glasses of wine
outcome of treatment ([5]; Example 5: employee, total dosage 17 g., after treatment September 1974 to February 1975): alcohol-free
revulsion against alcohol ([5]; after the administration of I, humans): a pronounced revulsion against alcohol is produced; also recorded: causes an aversion to alcohol in humans
failures [5, 10]: seven
questionable case [5, 10]: one
successful withdrawals [5, 10]: 2
patient protected against the influence of alcohol, duration ([5]; highest total dosage 67 g., 400 mg. twice, then oral 800 mg. per week): 84 weeks
withdrawal treatment questionable ([5]; of 22 evaluable cases): three
withdrawal treatment successful ([5]; of 22 evaluable cases): 12 cases
withdrawal treatment without success ([5]; of 22 evaluable cases): 7 cases
effectiveness against disease-causing trypanosomes (trypanosomes): effectiveness

Compound: CCN(CC)C(=S)SSC(=S)N(CC)CC [disulfiram]
side effects ([7]; orally administered): several undesirable side effects
contraindication ([7]; inter alia diabetes): contraindicated by, inter alia, diabetes
inhibition of important enzyme systems (important enzyme systems [8]): inhibited
